Literature values in PMC11133798, “Vosoritide treatment for children with hypochondroplasia: a phase 2 trial” (eClinicalMedicine, 2024).
No end group written: not given here.

Experiments:
[1] = tested on: children with hypochondroplasia; details: cited from earlier work
Text: As there are no currently approved medications for hypochondroplasia, recombinant human growth hormone (rhGH) has been used off-label in patients with hypochondroplasia with variable efficacy. To date, there are no controlled trials of rhGH in children with hypochondroplasia. […] However, growth velocity slowed substantially after the first year resulting in a total increase in height ...

L613V/+ mice = details: by 2 weeks of treatment; catch up began after 1 week; ref 26 (protocol list); cited from earlier work
Text: They then proceeded to give these mice a MEK inhibitor.

[2] = tested on: mouse model with Braf mutation (p.Q241R); details: CNP administration; ref 28 (protocol list); cited from earlier work
rat chondrosarcoma cells = details: CNP treatment; ref 36 (protocol list); cited from earlier work
Text: Individuals with heterozygous defects in Aggrecan present with dominantly inherited short stature often with advanced bone ages and premature growth cessation 32,33.

[3] = tested on: mice deficient in Nf1 in type II collagen producing cells; details: daily injections of CNP; ref 27 (protocol list); cited from earlier work
[4] = tested on: rat chondrosarcoma cell lines, NPR2 homozygous knock out; details: ref 23 (protocol list); cited from earlier work
Text: (§1) Our group identified pathogenic mutations in NPR2 in ~2% of ~400 patients presenting with short stature 22. The degree of short stature ...

[5] = tested on: rat chondrosarcoma cell lines, NPR2 heterozygous knock out; details: ref 23 (protocol list); cited from earlier work
Text: as §1

[6] = meta-analysis of 7 studies, 113 children with hypochondroplasia

Q: Which Body disproportion ([1]; higher dose of rhGH, after three years of treatment) does the source give for “rhGH: recombinant human growth hormone used off-label in hypochondroplasia” here?
A: The Body disproportion was “significant worsening of body disproportion”.

Q: What about the “Mean first year increase in height SDS” value [1, 6] of the same compound?
A: Its value is 0.41 SD.

Q: What about the “Total increase in height after 3 years” value [1, 6] of the same compound?
A: The value was 0.61 SD.

Q: For `O=C(NOC[C@H](O)CO)c1ccc(F)c(F)c1Nc1ccc(I)cc1F` [PD0325901], which Body length (L613V/+ mice) is on record?
A: The Body length was “the same length as untreated WT mice”.

Q: What does the source list for “CNP: endogenous C-type natriuretic peptide, ligand of NPR-B (GLSKGCFGLKLDRIGSMSGLGC; ends and bridges not checked; cysteine pairing not given here; UniProt P23582 105-126, looked up)”?
A: Body length [2]: increases in body length; Extracellular matrix after FGF2 administration (rat chondrosarcoma cells): rescue the loss of extracellular matrix; ERK phosphorylation and stature [3]: decreased ERK phosphorylation and corrected the short stature; cGMP response to CNP [4]: absolutely no; CNP concentration generating cGMP sufficient to activate downstream protein kinase G signaling [5]: > 0.163 nM
